This note sets out measurements from ChEMBL document CHEMBL4715916, “Synthesis and biological evaluation of a ring analogs of the selective CB2 inverse agonist SMM-189” (Bioorg Med Chem, 2021).

The structures appear in SMILES notation. Calls of active or inactive are those of the source. The calls are words filed in the database; no cut-off is given here.

Experiment [1] relates to IMhu. In words: Effect on LPS-stimulated microglia polarization in human IMhu cells assessed as decrease in CD68 expression at 35 uM after 24 hrs by cell polarization assay. It counts as functional, cell-based.
The test system of experiment [2] is C8-B4. In words: Effect on LPS-stimulated microglia polarization in mouse C8-B4 cells assessed as decrease in CD68 expression at 20 uM after 24 hrs by cell polarization assay. It counts as functional, cell-based.
For experiment [3], the system named is IMhu. In words: Effect on LPS-stimulated microglia polarization in human IMhu cells assessed as increase in CD206 expression at 35 uM after 24 hrs by cell polarization assay. It counts as functional, cell-based.
A further experiment is filed under the species Homo sapiens. In words: Selectivity ratio of Ki for displacement of [3H]-CP55940 from human recombinant cannabinoid CB1 receptor expressed in HEK cell membranes to displacement of [3H]-CP55940 from human recombinant cannabinoid CB2 receptor expressed in HEK cell membranes. Background: In a radioligand displacement assay an active substance lowers the binding of a labelled ligand.

In experiment [4] the target is T1, Cannabinoid receptor 2 (Homo sapiens, UniProt P34972). Briefly: Inverse agonist activity at human recombinant cannabinoid CB2 receptor expressed in HEK cells transfected with CNG assessed as increase in cAMP level measured up to 1 hr by ACTOne membrane potential dye based assay relative to control. The conditions noted are these: filed as inverse agonist, time hrs <=1. The experiment is classed as functional, cell-based. Background: cAMP levels reflect the balance of adenylyl cyclase and phosphodiesterase activity.
T1 sequence (P34972 whole entry): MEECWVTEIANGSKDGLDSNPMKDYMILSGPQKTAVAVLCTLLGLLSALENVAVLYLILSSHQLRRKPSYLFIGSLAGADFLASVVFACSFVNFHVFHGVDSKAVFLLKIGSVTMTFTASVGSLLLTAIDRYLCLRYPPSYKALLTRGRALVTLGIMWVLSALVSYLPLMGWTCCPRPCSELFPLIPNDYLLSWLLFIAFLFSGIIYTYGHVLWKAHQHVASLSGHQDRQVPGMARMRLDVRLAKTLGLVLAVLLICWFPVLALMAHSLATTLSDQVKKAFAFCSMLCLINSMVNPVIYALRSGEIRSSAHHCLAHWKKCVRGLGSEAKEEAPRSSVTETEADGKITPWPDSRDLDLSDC

In experiment [5] the target is T1, Cannabinoid receptor 2. Briefly: Inverse agonist activity at cannabinoid CB2 receptor in human U2OS cells assessed as induction of beta-arrestin recruitment using CCF4/AM as substrate preincubated for 5 hrs followed by substrate addition and measured after 2 hrs by Tango assay. It counts as cell-based. A general note: Activated receptors often draw arrestin, which recruitment assays turn into a signal.

Experiment [6] deals with T2, Cannabinoid receptor 1 (Homo sapiens, UniProt P21554). In words: Displacement of [3H]-CP55940 from human recombinant cannabinoid CB1 receptor expressed in HEK cell membranes incubated for 1.5 hrs by liquid scintillation counting method. Further details: species or system Cell membrane.
T2 sequence (P21554 whole entry): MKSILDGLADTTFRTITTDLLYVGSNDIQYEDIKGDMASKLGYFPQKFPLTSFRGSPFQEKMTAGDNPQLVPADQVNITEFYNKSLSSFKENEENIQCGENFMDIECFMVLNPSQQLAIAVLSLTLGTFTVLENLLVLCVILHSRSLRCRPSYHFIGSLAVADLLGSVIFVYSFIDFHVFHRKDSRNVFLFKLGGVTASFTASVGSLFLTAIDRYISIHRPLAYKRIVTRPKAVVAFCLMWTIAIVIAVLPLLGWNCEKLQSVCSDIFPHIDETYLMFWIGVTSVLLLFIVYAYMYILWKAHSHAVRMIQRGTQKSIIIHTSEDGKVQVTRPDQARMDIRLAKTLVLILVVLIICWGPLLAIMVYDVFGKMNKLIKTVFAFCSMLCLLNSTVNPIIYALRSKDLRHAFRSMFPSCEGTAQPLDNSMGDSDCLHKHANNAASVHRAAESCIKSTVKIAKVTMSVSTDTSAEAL
Experiment [7] has as its system IMhu. In words: Induction of morphological changes in LPS-induced human IMhu cells assessed as ramified cell at 10 uM after 24 hrs by DAPI/Phalloidin staining based fluorescence microscopic analysis. It counts as functional.
Experiment [8] concerns C8-B4. In words: Effect on LPS-stimulated microglia polarization in mouse C8-B4 cells assessed as increase in CD204 expression at 20 uM after 24 hrs by cell polarization assay. The experiment is classed as functional, cell-based.
The target of experiment [9] is T2, Cannabinoid receptor 1. Briefly: Inverse agonist activity at cannabinoid CB1 receptor in human U2OS cells assessed as induction of beta-arrestin recruitment using CCF4/AM as substrate preincubated for 5 hrs followed by substrate addition and measured after 2 hrs by Tango assay. The conditions noted are these: time 7.0 hrs. It counts as cell-based.
Experiment [10] addresses T1, Cannabinoid receptor 2. Briefly: Displacement of [3H]-CP55940 from human recombinant cannabinoid CB2 receptor expressed in HEK cell membranes incubated for 1.5 hrs by liquid scintillation counting method. More on the design: species or system Cell membrane.
The subject of experiment [11] is C8-B4. In words: Effect on LPS-stimulated microglia polarization in mouse C8-B4 cells assessed as increase in CD206 expression at 20 uM after 24 hrs by cell polarization assay. It counts as functional, cell-based.
For experiment [12], the system named is IMhu. Briefly: Effect on LPS-stimulated microglia polarization in human IMhu cells assessed as decrease in CD16 expression at 35 uM after 24 hrs by cell polarization assay. The experiment is classed as functional, cell-based.
In experiment [13] the target is T2, Cannabinoid receptor 1. Briefly: Inverse agonist activity at cannabinoid CB1 receptor in human U2OS cells assessed as emission ratio using CCF4/AM as substrate preincubated for 5 hrs followed by substrate addition and measured after 2 hrs by Tango assay. The experiment is classed as cell-based. The conditions noted are these: time 7.0 hrs.
Experiment [14] relates to C8-B4. In words: Effect on LPS-stimulated microglia polarization in mouse C8-B4 cells assessed as decrease in CD16/32 expression at 20 uM after 24 hrs by cell polarization assay. It counts as functional, cell-based.
For experiment [15], the system named is IMhu. Briefly: Effect on LPS-stimulated microglia polarization in human IMhu cells assessed as increase in CD204 expression at 35 uM after 24 hrs by cell polarization assay. It counts as functional, cell-based.
Experiment [16] has as its target T1, Cannabinoid receptor 2. Briefly: Inverse agonist activity at cannabinoid CB2 receptor in human U2OS cells assessed as emission ratio using CCF4/AM as substrate preincubated for 5 hrs followed by substrate addition and measured after 2 hrs by Tango assay. The experiment is classed as cell-based. The conditions noted are these: filed as inverse agonist, time 7.0 hrs.

The subject of experiment [17] is IMhu. Briefly: Cytoprotective activity in human IMhu cells assessed as reduction in LPS-induced ROS generation at 10 uM after 50 to 1440 mins by fluorescence based assay. Particulars: time 50-1440 min. The experiment is classed as functional, cell-based.
Experiment [18] deals with IMhu. In words: Inhibition of cell migration in LPS-induced human IMhu cells at 10 uM after 24 hrs by scratch assay. The experiment is classed as functional.
For experiment [19], the target named is T1, Cannabinoid receptor 2. In words: Inverse agonist activity at human recombinant cannabinoid CB2 receptor expressed in HEK cells transfected with CNG assessed as increase in cAMP level measured up to 1 hr by ACTOne membrane potential dye based assay. It counts as functional, cell-based.
In experiment [20] the target is T2, Cannabinoid receptor 1. In words: Inverse agonist activity at human recombinant cannabinoid CB1 receptor expressed in HEK cells transfected with CNG assessed as increase in cAMP level measured up to 1 hr by ACTOne membrane potential dye based assay relative to control. The experiment is classed as functional, cell-based. The conditions noted are these: time hrs <=1.

In experiment [21] the target is T2, Cannabinoid receptor 1. In words: Inverse agonist activity at human recombinant cannabinoid CB1 receptor expressed in HEK cells transfected with CNG assessed as increase in cAMP level measured up to 1 hr by ACTOne membrane potential dye based assay. It counts as functional, cell-based. Particulars: time hrs <=1.
The test system of experiment [22] is IMhu. In words: Induction of morphological changes in LPS-induced human IMhu cells assessed as elongated projection formation at 10 uM after 24 hrs by DAPI/Phalloidin staining based fluorescence microscopic analysis. It counts as functional.
Experiment [23] concerns IMhu. In words: Induction of morphological changes in LPS-induced human IMhu cells assessed as small cell body at 10 uM after 24 hrs by DAPI/Phalloidin staining based fluorescence microscopic analysis. It counts as functional.

As to `O=C(c1cc(O)c(-c2cccc(C(F)(F)F)c2)c(O)c1)c1cccs1`, the result in the experiment on IMhu [1], with C8-B4 [2], in the experiment with IMhu [3], in the experiment with IMhu [7], with C8-B4 [8] and with C8-B4 [11] was Active. For the same compound, the result in the experiment with IMhu [12], in the experiment on C8-B4 [14], in the experiment with IMhu [15], in the experiment on IMhu [17], with IMhu [22] and in the experiment with IMhu [23] was Active. The Ratio Ki in the experiment filed under Homo sapiens is greater than 64.9. In addition, the Emax (as a rule, the maximal effect, on the per cent scale that the assay sets) on Cannabinoid receptor 2 [4] was 57.2%. For the same compound, the results for the EC50 at Cannabinoid receptor 2 [5] and on Cannabinoid receptor 2 [19] were 8510 nM and 38.9 nM, respectively. Besides, the Ki – broadly, a measure of affinity in units of concentration, obtained from inhibition or displacement – at Cannabinoid receptor 1 [6] is greater than 10000 nM; at Cannabinoid receptor 2 [10] it was 154 nM. For the same compound, the pEC50 result at Cannabinoid receptor 1 [9] and on Cannabinoid receptor 1 [21] was “inactive” in each case. Also, the Ratio result at Cannabinoid receptor 1 [13] was “inactive”. Moreover, at Cannabinoid receptor 2 [16], the Ratio was found to be 1.19. Also, the inhibition result with IMhu [18] is “Active”. The Emax entry on Cannabinoid receptor 1 [20] was “inactive”.
